Data published in article PMC6311682, “Design, Synthesis, and Biological Evaluation of 2-Nitroimidazopyrazin-one/-es with Antitubercular and Antiparasitic Activity” (Journal of Medicinal Chemistry, 2018).
In brackets after ≈: the same amount, converted by molar mass. Where two headings read alike, the source gives them in different places. Marks after values point to notes of the source that are not given here.

How the values were obtained:
[1] = test system: C. difficile (630, ATCC BAA-1382); experiment: Broth microdilution MIC assay, C. difficile; type: cell-based, Clostridium difficile; conditions: 630 ATCC BAA-1382, median MIC; for MIC: Clostridioides difficile, ATCCBAA1382, read-out: antibacterial MIC C. difficile
[2] = test system: C. albicans (ATCC 90028) and C. neoformans (H99, ATCC 208821); experiment: Broth microdilution MIC assay, fungi; type: cell-based; conditions: for MIC: Candida albicans, read-out: antifungal MIC
[3] = Mammalian cytotoxicity assay (resazurin), HEK293; conditions: human, HEK293 cells
[4] = Kinetic solubility determination by LC-UV; conditions: room temperature, 1% DMSO
[5] = test system: L. donovani MHOM/IN/80/DD8 (ATCC50212); experiment: L. donovani DD8 intracellular (THP-1) amastigote assay; type: cell-based; conditions: Leishmania donovani
[6] = Mammalian cytotoxicity assay (resazurin), HepG2; conditions: human, HepG2 cells
[7] = test system: ESKAPE pathogens S. aureus (ATCC 43300), E. coli (ATCC 25922), K. pneumoniae (ATCC 700603), A. baumannii (ATCC 19606), P. aeruginosa (ATCC 27853); experiment: Broth microdilution MIC assay, ESKAPE pathogens; type: cell-based
[8] = Broth microdilution MIC assay, ESKAPE pathogens; type: cell-based; conditions: S. aureus, E. coli, K. pneumoniae, A. baumannii, P. aeruginosa; read-out: antibacterial MIC ESKAPE
[9] = PBS, pH 7.4, Solubility µM (PBS), PBS pH 7.4, 24 h
[10] = water, Solubility µM (H2O), 24 h
[11] = read-out: antiparasitic IC50 L. donovani
[12] = read-out: antiparasitic pIC50 ± SE L. donovani (converted)

SMILES	antibacterial MIC C. difficile [1]	MIC [1]	antifungal MIC [2]	MIC [2]	CC50 at 24 h [3]	solubility at 24 h [4, 9]	solubility at 24 h [4, 10]	IC50 [5, 11]	IC50 [5, 12]	CC50 at 24 h [6]	antibacterial MIC ESKAPE [7]	MIC [8]
CC(=O)OCCOc1nc(-c2ccccc2)cn2cc([N+](=O)[O-])nc12 [24c, 2-((2-Nitro-6-phenylimidazo[1,2-a]pyrazin-8-yl)oxy)ethyl Acetate]	>64 µg/mL	> 64 µg/mL	>32 µg/mL	> 32 µg/mL	> 100 µM	< 5 µM	< 5 µM	> 80 µM	> 79.4 µM	> 100 µM	>32 µg/mL	> 32 µg/mL
O=[N+]([O-])c1cn2cc(-c3ccccc3)nc(OCCO)c2n1 [24e, 2-((2-Nitro-6-phenylimidazo[1,2-a]pyrazin-8-yl)oxy)ethan-1-ol]	>64 µg/mL	> 64 µg/mL	>32 µg/mL	> 32 µg/mL	> 100 µM	< 5 µM	< 5 µM	> 80 µM	> 79.4 µM	> 100 µM	16-32* μg/mL	16 to 32 µg/mL (≈ 53.3 to 107 µM)
Cc1cn2cc([N+](=O)[O-])nc2c(=O)[nH]1 [25a, 6-Methyl-2-nitroimidazo[1,2-a]pyrazin-8(7H)-one]	>64 µg/mL	> 64 µg/mL	>32 µg/mL	> 32 µg/mL	> 100 µM	183 ± 29.2 µM (≈ 35.5 µg/mL)	182 ± 18.2 µM (≈ 35.3 µg/mL)	> 80 µM	> 79.4 µM	> 100 µM	>32 µg/mL	> 32 µg/mL
CC(=O)OCCOc1nc(C)cn2cc([N+](=O)[O-])nc12 [25c, 2-((6-Methyl-2-nitroimidazo[1,2-a]pyrazin-8-yl)oxy)ethyl]	>64 µg/mL	> 64 µg/mL	>32 µg/mL	> 32 µg/mL	> 100 µM	185 ± 2.69 µM (≈ 51.8 µg/mL)	169 ± 11 µM (≈ 47.4 µg/mL)	> 80 µM	> 79.4 µM	> 100 µM	>32 µg/mL	> 32 µg/mL
Cc1ccc(Cn2c(C)cn3cc([N+](=O)[O-])nc3c2=O)cc1 [25h, 6-Methyl-7-(4-methylbenzyl)-2-nitroimidazo[1,2-a]pyrazin-8(7H)-one]	–	–	>32 µg/mL	> 32 µg/mL	> 100 µM	–	7.5 ± 0.245 µM (≈ 2.24 µg/mL)	> 40 µM	> 39.8 µM	> 100 µM	>32 µg/mL	> 32 µg/mL
Cc1ccc(COc2nc(C)cn3cc([N+](=O)[O-])nc23)cc1 [25i, 6-Methyl-8-((4-methylbenzyl)oxy)-2-nitroimidazo[1,2-a]pyrazine]	–	–	>32 µg/mL	> 32 µg/mL	> 100 µM	< 5 µM	< 5 µM	–	–	> 100 µM	>32 µg/mL	> 32 µg/mL
Cc1cn2cc([N+](=O)[O-])nc2c(=O)n1Cc1cccc(OC(F)(F)F)c1 [25j, 6-Methyl-2-nitro-7-(3-(trifluoromethoxy)benzyl)imidazo[1,2-a]pyrazin-8(7H)-one]	–	–	>32 µg/mL	> 32 µg/mL	> 100 µM	< 5 µM	< 5 µM	> 20 µM	> 20 µM	> 100 µM	>32 µg/mL	> 32 µg/mL
Cc1cn2cc([N+](=O)[O-])nc2c(=O)n1Cc1ccccc1OC(F)(F)F [25l, 6-Methyl-2-nitro-7-(2-(trifluoromethoxy)benzyl)imidazo[1,2-a]pyrazin-8(7H)-one]	–	–	>32 µg/mL	> 32 µg/mL	> 100 µM	< 5 µM	< 5 µM	> 40 µM	> 39.8 µM	> 100 µM	>32 µg/mL	> 32 µg/mL
Cc1cn2cc([N+](=O)[O-])nc2c(OCc2ccccc2OC(F)(F)F)n1 [25m, 6-Methyl-2-nitro-8-((2-(trifluoromethoxy)benzyl)oxy)imidazo[1,2-a]pyrazine]	–	–	–	> 32 µg/mL	> 100 µM	< 5 µM	< 5 µM	> 40 µM	> 39.8 µM	> 100 µM	–	> 32 µg/mL
Cc1ccc(Cn2c(C)c(C)n3cc([N+](=O)[O-])nc3c2=O)cc1 [26d, 5,6-Dimethyl-7-(4-methylbenzyl)-2-nitroimidazo[1,2-a]pyrazin-8(7H)-one]	–	–	>32 µg/mL	> 32 µg/mL	> 100 µM	6.13 ± 0.0957 µM (≈ 1.91 µg/mL)	8.95 ± 1.51 µM (≈ 2.8 µg/mL)	> 40 µM	> 39.8 µM	> 100 µM	>32 µg/mL	> 32 µg/mL
Cc1ccc(COc2nc(C)c(C)n3cc([N+](=O)[O-])nc23)cc1 [26e, 5,6-Dimethyl-8-((4-methylbenzyl)oxy)-2-nitroimidazo[1,2-a]pyrazine]	–	–	>32 µg/mL	> 32 µg/mL	> 100 µM	< 5 µM	< 5 µM	> 20 µM	> 20 µM	> 100 µM	>32 µg/mL	> 32 µg/mL
Cc1nc(OCc2cccc(OC(F)(F)F)c2)c2nc([N+](=O)[O-])cn2c1C [26g, 5,6-Dimethyl-2-nitro-8-((3-(trifluoromethoxy)benzyl)oxy)imidazo[1,2-a]pyrazine]	–	–	>32 µg/mL	> 32 µg/mL	> 100 µM	< 5 µM	< 5 µM	> 20 µM	> 20 µM	> 100 µM	>32 µg/mL	> 32 µg/mL
Cc1c(C)n2cc([N+](=O)[O-])nc2c(=O)n1Cc1ccccc1OC(F)(F)F [26h, 5,6-Dimethyl-2-nitro-7-(2-(trifluoromethoxy)benzyl)imidazo[1,2-a]pyrazin-8(7H)-one]	–	–	>32 µg/mL	> 32 µg/mL	> 100 µM	4.6 ± 0.6 µM (≈ 1.76 µg/mL)	7.28 ± 0.695 µM (≈ 2.78 µg/mL)	–	–	> 100 µM	>32 µg/mL	> 32 µg/mL
Cc1nc(OCc2ccccc2OC(F)(F)F)c2nc([N+](=O)[O-])cn2c1C [26i, 5,6-Dimethyl-2-nitro-8-((2-(trifluoromethoxy)benzyl)oxy)imidazo[1,2-a]pyrazine]	–	–	>32 µg/mL	> 32 µg/mL	> 100 µM	< 5 µM	< 5 µM	–	–	> 100 µM	>32 µg/mL	> 32 µg/mL
